Measured values published in ChEMBL document CHEMBL4321821, “Opioids as Substrates and Inhibitors of the Genetically Highly Variable Organic Cation Transporter OCT1” (J Med Chem, 2019).

Tests used:
[1] = target: T1, Solute carrier family 22 member 1 (Homo sapiens, UniProt O15245); assay: Inhibition of human OCT1 expressed in HEK293 cells assessed as reduction in ASP+ substrate uptake by microplate reader based analysis; assay type: cell-based
T1 sequence (O15245 whole entry): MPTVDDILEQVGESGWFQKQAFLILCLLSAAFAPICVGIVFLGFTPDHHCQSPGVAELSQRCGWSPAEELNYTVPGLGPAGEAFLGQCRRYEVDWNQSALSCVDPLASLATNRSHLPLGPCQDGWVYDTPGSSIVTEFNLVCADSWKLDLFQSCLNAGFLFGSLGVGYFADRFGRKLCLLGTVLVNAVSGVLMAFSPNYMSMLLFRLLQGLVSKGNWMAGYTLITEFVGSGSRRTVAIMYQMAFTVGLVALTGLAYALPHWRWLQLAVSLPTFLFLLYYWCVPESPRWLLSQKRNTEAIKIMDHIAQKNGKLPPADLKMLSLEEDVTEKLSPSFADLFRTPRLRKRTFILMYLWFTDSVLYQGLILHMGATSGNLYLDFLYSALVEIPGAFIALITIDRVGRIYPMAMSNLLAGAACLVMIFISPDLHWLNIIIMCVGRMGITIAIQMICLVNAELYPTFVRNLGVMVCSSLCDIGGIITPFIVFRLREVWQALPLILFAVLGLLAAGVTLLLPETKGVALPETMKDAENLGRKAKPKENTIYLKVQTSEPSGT

[2] = target: T2, OCT1 (SLC22A1) (Homo sapiens, UniProt O15245); assay: Substrate activity at human OCT1 expressed in HEK293 cells assessed as increase in compound uptake at 0.1 uM incubated for 2 mins by LC-MS/MS analysis relative to control empty vector transfected cells; assay type: cell-based; conditions: HEK293 cells that express human OCT1, read-out: FC
T2 sequence (O15245 whole entry): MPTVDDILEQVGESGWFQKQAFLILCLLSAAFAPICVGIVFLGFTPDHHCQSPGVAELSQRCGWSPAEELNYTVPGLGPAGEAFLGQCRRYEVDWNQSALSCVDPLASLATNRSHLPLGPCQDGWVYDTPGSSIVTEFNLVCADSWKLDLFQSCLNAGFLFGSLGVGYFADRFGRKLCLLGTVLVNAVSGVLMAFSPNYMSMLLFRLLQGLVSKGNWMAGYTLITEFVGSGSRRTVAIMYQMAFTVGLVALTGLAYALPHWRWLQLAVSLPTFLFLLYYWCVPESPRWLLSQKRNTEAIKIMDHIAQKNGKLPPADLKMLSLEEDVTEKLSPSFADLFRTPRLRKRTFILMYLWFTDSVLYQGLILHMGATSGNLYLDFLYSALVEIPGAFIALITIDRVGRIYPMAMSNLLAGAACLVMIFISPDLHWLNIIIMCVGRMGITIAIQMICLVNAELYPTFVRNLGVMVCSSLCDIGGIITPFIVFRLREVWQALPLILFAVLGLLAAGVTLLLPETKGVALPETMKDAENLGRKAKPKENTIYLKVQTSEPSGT

[3] = in vitro; conditions: PAMPA
Description: Passive membrane permeability by LC-MS/MS analysis based PAMPA

[4] = target: T2, OCT1 (SLC22A1); assay: Substrate activity at human OCT1 expressed in HEK293 cells assessed as increase in compound uptake at 0.05 uM incubated for 2 mins by LC-MS/MS analysis relative to control empty vector transfected cells; assay type: cell-based; conditions: HEK293 cells that express human OCT1, read-out: FC
[5] = target: T2, OCT1 (SLC22A1); assay: Substrate activity at human OCT1 expressed in HEK293 cells assessed as increase in compound uptake at 0.5 uM incubated for 2 mins by LC-MS/MS analysis relative to control empty vector transfected cells; assay type: cell-based; conditions: HEK293 cells that express human OCT1, read-out: FC
[6] = Ratio of unbound Cmax in human at 60 mg, po to inhibition of human OCT1 expressed in HEK293 cells assessed as reduction in ASP+ substrate uptake by microplate reader based analysis; assay type: ADME, organism-based; conditions: in vivo
[7] = Unbound maximal portal vein concentration of in human at 60 mg, po; assay type: ADME, tissue-based; conditions: in vivo
[8] = Ratio of unbound maximal portal vein concentration in human at 60 mg, po to inhibition of human OCT1 expressed in HEK293 cells assessed as reduction in ASP+ substrate uptake by microplate reader based analysis; assay type: ADME, organism-based; conditions: in vivo
[9] = Cmax in human at 60 mg, po; assay type: ADME; set-up: dose 60 mg, route oral; conditions: in vivo
[10] = Unbound Cmax in human at 60 mg, po; assay type: ADME; conditions: in vivo

SMILES	IC50 [1] [µM]	uptake ratio at 2 min, 0.1 µM [2]	Papp [3] [×10⁻⁶ cm/s]	uptake ratio at 2 min, 0.05 µM [4]	uptake ratio at 2 min, 0.5 µM [5]	Ratio [6]	fCmax [7] [µM]	Ratio [8]	Cmax [9] [nM]	fCmax [10] [µM]
COc1ccc2c(c1)[C@@]13CCCC[C@H]1[C@@H](C2)NCC3	10 to 10.3	2.2	17.2	2.5	2	–	–	–	–	–
COc1ccc2c3c1O[C@H]1C(=O)CC[C@@]4(O)[C@@H](C2)NCC[C@]314	200	3.9	0.9	4	3.6	–	–	–	–	–
CNC[C@H]1CCCC[C@]1(O)c1cccc(OC)c1	55.7	–	13.4	–	–	–	–	–	–	–
COc1cccc([C@@]2(O)CCCC[C@@H]2CN(C)C)c1 [(R,R)-TRAMADOL]	88.8	–	26.9	–	–	–	–	–	–	–
COc1ccc2c3c1O[C@H]1[C@@H](O)C=C[C@H]4[C@@H](C2)N(C)CC[C@@]341 [CODEINE]	236	1	8	0.7	0.8	–	–	–	–	–
COc1ccc2c(c1)[C@]13CCCC[C@@H]1[C@H](C2)N(C)CC3 [DEXTROMETHORPHAN]	15 to 15.1	1.3	63.7	1.1	0.8	0.0004	4.57	0.302	20	0.007
CN1CC[C@@]23CCCC[C@@H]2[C@@H]1Cc1ccc(O)cc13 [DEXTRORPHAN]	6 to 6.4	1.9	5.4	2.1	1.5	–	–	–	–	–
COc1ccc2c3c1O[C@H]1C(=O)CC[C@H]4[C@@H](C2)N(C)CC[C@]314 [HYDROCODONE]	537	1.6	9.1	0.9	1.2	–	–	–	–	–
